Results as given in publication PMC7321065, “Discovery of New Schiff Bases Tethered Pyrazole Moiety: Design, Synthesis, Biological Evaluation, and Molecular Docking Study as Dual Targeting DHFR/DNA Gyrase Inhibitors with Immunomodulatory Activity” (Molecules, 2020).
Converted amounts (≈) assume the structure as drawn. Read-outs that look alike come from different tables or passages of the source.

How the values were obtained:
S. aureus DNA Gyrase = S. aureus DNA Gyrase (Staphylococcus aureus, UniProt P0A0K8+P20831); assay: DNA gyrase enzyme assay; format: biochemical; conditions: Mean ± SEM
[1] = tested on: S. aureus ATCC 43300 (MRSA); assay: MIC/MBC against MDRB, paper disk diffusion; format: cell-based; conditions: Staphylococcus aureus, S. aureus ATCC 43300; for MBC: read-out: MBC; for MIC: read-out: MIC
Excerpt: (§1) The inhibition zone (IZ, mm±standard deviation) of pyrazole Schiff bases ( 6b, 7b, 7c, 8a, 8d and 9b) was
(§2) measurement according to the agar plate diffusion method against a panel of multidrug-resistant bacteria
(MDRB). […]

[2] = tested on: P. aeruginosa ATCC BAA-2111; assay: MIC/MBC against MDRB, paper disk diffusion; format: cell-based; conditions: Pseudomonas aeruginosa, ATCCBAA2111, P. aeruginosa ATCC BAA-2111; for MBC: read-out: MBC; for MIC: read-out: MIC
Excerpt: as §1, §2
(MDRB). […]

S. aureus ATCC 33591 = assay: MIC/MBC against MDRB, paper disk diffusion; format: cell-based; conditions: Staphylococcus aureus, ATCC33591, S. aureus ATCC 33591; for MBC: read-out: MBC; for MIC: read-out: MIC
Excerpt: as §1, §2
(MDRB). […]

E. coli ATCC BAA-196 [3] = assay: MIC/MBC against MDRB, paper disk diffusion; format: cell-based; conditions: Escherichia coli, ATCCBAA196, E. coli ATCC BAA-196; for MBC: read-out: MBC; for MIC: read-out: MIC
Excerpt: as §1, §2
(MDRB). […]

Candida albicans [4] = assay: MIC/MFC, paper disk diffusion; format: cell-based; conditions: for MFC / MIC: Candida albicans; for MFC: read-out: MFC
Method in brief: (§3)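 MIC and MBC were obtained by paper disk diffusion, bacteria grown on nutrient agar and fungi/yeast on Sabouraud agar. MIC is the lowest concentration inhibiting growth.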

Fusarium oxysporum [5] = assay: MIC/MFC, paper disk diffusion; format: cell-based; conditions: F. oxysporum; for MFC / MIC: Fusarium oxysporum; for MFC: read-out: MFC; for MIC: read-out: MIC
Method in brief: as §3

Salmonella typhi = assay: Inhibition zone, agar plate diffusion; format: cell-based; conditions: Salmonella enterica, St, mm ± standard deviation, sample at 0.5 mg/mL, read-out: Inhibition zone (IZ)
Method in brief: (§4)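 Compounds in DMSO, with DMSO as negative control, were tested at 0.5 mg/mL in agar wells cut 10 mm wide.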

Staphylococcus aureus [6] = assay: Inhibition zone, agar plate diffusion; format: cell-based; conditions: Sa, mm ± standard deviation, sample at 0.5 mg/mL, read-out: Inhibition zone (IZ)
Method in brief: as §4

Candida albicans [7] = assay: Inhibition zone, agar plate diffusion; format: cell-based; conditions: Ca, mm ± standard deviation, sample at 0.5 mg/mL, read-out: Inhibition zone (IZ)
Method in brief: as §4

Fusarium oxysporum [8] = assay: Inhibition zone, agar plate diffusion; format: cell-based; conditions: Fo, mm ± standard deviation, sample at 0.5 mg/mL, read-out: Inhibition zone (IZ)
Method in brief: as §4

[9] = tested on: S. aureus ATCC 43300 (MRSA); assay: Inhibition zone against MDRB, agar plate diffusion; format: cell-based
B. subtilis DNA Gyrase = B. subtilis DNA Gyrase (Bacillus subtilis, UniProt P05652+P05653); assay: DNA gyrase enzyme assay; format: biochemical; conditions: Mean ± SEM
[10] = tested on: P. aeruginosa ATCC BAA-2111; assay: Inhibition zone against MDRB, agar plate diffusion; format: cell-based
Staphylococcus aureus [11] = assay: MIC/MBC, paper disk diffusion; format: cell-based; conditions: Staphylococcus aureus, S. aureus; for MBC: read-out: MBC; for MIC: read-out: MIC
Method in brief: as §3

Pseudomonas aeruginosa = assay: MIC/MBC, paper disk diffusion; format: cell-based; conditions: P. aeruginosa; for MBC / MIC: Pseudomonas aeruginosa; for MBC: read-out: MBC; for MIC: read-out: MIC
Method in brief: as §3

DHFR E. coli = DHFR E. coli (Escherichia coli, UniProt P0ABQ4); assay: Dihydrofolate reductase enzyme assay; format: biochemical; conditions: for Fold potential relative to Trimethoprim (IC50): DHFR
Vero cells (ATCC CCL-81) = assay: Cytotoxicity on normal cells, MTT assay; format: cell-based, African green monkey; conditions: MTT, healthy non-cancer cells, read-out: IC50 Vero
Method: 3-[4, 5-Dimethyl-2-thiazolyl)-2, 5-diphenyl-2 H-tetrazolium bromide (MTT) protocol is based on the cleavage of the tetrazolium salt by mitochondrial dehydrogenases in viable cells. Cells were dispensed in a 96 well sterile microplate (5 x 10^4 cells/well), and incubated at 37 °C with series of different concentrations, in DMSO, of each tested compound or Doxorubicin ® (positive control) for 48 h in a serum free medium prior to the MTT assay. After incubation, media were carefully removed, 40 µL of MTT (2.5 mg/mL) were added to each well and then incubated for an additional 4 h. The purple formazan dye crystals were solubilized by the addition of 200 µL of DMSO. The absorbance was measured at 590 nm using a SpectraMax® Paradigm® Multi-Mode microplate reader. The relative cell viability was expressed as the mean percentage of viable cells compared to the untreated control cells.
All experiments were conducted in triplicate and repeated in three different days. All the values were represented as mean ± SD. IC 50s were determined by probit analysis using SPSS software program (SPSS

E. coli ATCC BAA-196 [12] = assay: Inhibition zone against MDRB, agar plate diffusion; format: cell-based

Question: With `COc1ccc(Nc2n[nH]c(N=Cc3cc(OC)c(OC)c(OC)c3)c2C(=O)Nc2ccccc2)cc1` [9b, 3-(p-Methoxyphenylamino)-N-phenyl-5-(3,4,5-trimethoxybenzylideneamino)-1H-pyrazole-4-carboxamide] as the compound, how does the IC50 (S. aureus DNA Gyrase) read?
Answer: 10.5 ± 0.55 µM

Question: And the MBC [1]?
Answer: 4.5 µg/mL (≈ 8.97 µM)

Question: What about the MIC [1] of the same compound?
Answer: 2.5 µg/mL (≈ 4.98 µM)

Question: And the MBC [2]?
Answer: 9.88 µg/mL (≈ 19.7 µM)

Question: And the MIC [2]?
Answer: 5.2 µg/mL (≈ 10.4 µM)

Question: And the MBC (S. aureus ATCC 33591)?
Answer: 3.31 µg/mL (≈ 6.6 µM)

Question: What about the MIC (S. aureus ATCC 33591) of the same compound?
Answer: 1.95 µg/mL (≈ 3.89 µM)

Question: What about the MBC (E. coli ATCC BAA-196 [3]) of the same compound?
Answer: 11.9 µg/mL (≈ 23.7 µM)

Question: What about the MIC (E. coli ATCC BAA-196 [3]) of the same compound?
Answer: 6.25 µg/mL (≈ 12.5 µM)

Question: What about the “Fold activity in comparison with Amphotericin B (MIC)” value (from here on “Fold activity in comparison”) (Candida albicans [4]; C. albicans) of the same compound?
Answer: 2 fold

Question: What about the MFC (Candida albicans [4]; C. albicans) of the same compound?
Answer: 12.5 µg/mL (≈ 24.9 µM)

Question: And the MIC (Candida albicans [4]; C. albicans, read-out: MIC)?
Answer: 7.81 µg/mL (≈ 15.6 µM)

Question: What about the “Fold activity in comparison” value (Fusarium oxysporum [5]) of the same compound?
Answer: 2 fold

Question: What about the MFC (Fusarium oxysporum [5]) of the same compound?
Answer: 26.6 µg/mL (≈ 52.9 µM)

Question: What about the MIC (Fusarium oxysporum [5]) of the same compound?
Answer: 15.6 µg/mL (≈ 31.1 µM)

Question: And the zone of inhibition at 500 µg/mL (Salmonella typhi)?
Answer: 23 ± 0.4 mm

Question: What about the zone of inhibition at 500 µg/mL (Staphylococcus aureus [6]) of the same compound?
Answer: 21 ± 0.3 mm

Question: What about the zone of inhibition at 500 µg/mL (Candida albicans [7]) of the same compound?
Answer: 19 ± 0.25 mm

Question: And the zone of inhibition at 500 µg/mL (Fusarium oxysporum [8])?
Answer: 17 ± 0.5 mm

Question: What about the “Mean Diameter of Inhibition Zone against MDRB” value [9] of the same compound?
Answer: 24 ± 0.65 mm

Question: And the IC50 (B. subtilis DNA Gyrase)?
Answer: 14.2 ± 0.42 µM

Question: What about the “Mean Diameter of Inhibition Zone against MDRB” value [10] of the same compound?
Answer: 24 ± 0.88 mm

Question: And the MBC (Staphylococcus aureus [11])?
Answer: 15.6 µg/mL (≈ 31.1 µM)

Question: And the MIC (Staphylococcus aureus [11])?
Answer: 7.81 µg/mL (≈ 15.6 µM)

Question: What about the MBC (Pseudomonas aeruginosa) of the same compound?
Answer: 31.2 µg/mL (≈ 62.3 µM)

Question: What about the MIC (Pseudomonas aeruginosa) of the same compound?
Answer: 15.6 µg/mL (≈ 31.1 µM)

Question: And the IC50 (DHFR E. coli)?
Answer: 6.48 ± 0.33 µM

Question: What about the “Fold potential relative to Trimethoprim (IC50)” value (DHFR E. coli) of the same compound?
Answer: 0.80 fold

Question: What about the IC50 (Vero cells (ATCC CCL-81); Chlorocebus sabaeus, Vero) of the same compound?
Answer: > 120 µM

Question: What about the IC50 (Vero cells (ATCC CCL-81)) of the same compound?
Answer: 195.9 ± 0.57 µM

Question: And the “Mean Diameter of Inhibition Zone against MDRB” value (E. coli ATCC BAA-196 [12])?
Answer: 22 ± 0.2 mm

Question: `COc1ccc(Nc2n[nH]c(N=Cc3ccc(N4CCCCC4)cc3)c2C(N)=O)cc1` [8a, 3-(p-Methoxyphenylamino)-5-(4-(piperidin-1-yl)benzylideneamino)-1H-pyrazole-4-carboxamide] was tested. Which IC50 (S. aureus DNA Gyrase) did it give?
Answer: 7.69 ± 0.23 µM

Question: What about the MBC [1] of the same compound?
Answer: 3.9 µg/mL (≈ 9.32 µM)

Question: And the MIC [1]?
Answer: 1.95 µg/mL (≈ 4.66 µM)

Question: What about the MBC [2] of the same compound?
Answer: 7.8 µg/mL (≈ 18.6 µM)

Question: What about the MIC [2] of the same compound?
Answer: 3.9 µg/mL (≈ 9.32 µM)

Question: And the MBC (S. aureus ATCC 33591)?
Answer: 7.8 µg/mL (≈ 18.6 µM)

Question: What about the MIC (S. aureus ATCC 33591) of the same compound?
Answer: 3.9 µg/mL (≈ 9.32 µM)

Question: What about the MBC (E. coli ATCC BAA-196 [3]) of the same compound?
Answer: 3.9 µg/mL (≈ 9.32 µM)

Question: What about the MIC (E. coli ATCC BAA-196 [3]) of the same compound?
Answer: 1.95 µg/mL (≈ 4.66 µM)

Question: What about the “Fold activity in comparison” value (Candida albicans [4]; C. albicans) of the same compound?
Answer: 2 fold

Question: And the MIC (Candida albicans [4])?
Answer: 7.81 µg/mL (≈ 18.7 µM)

Question: What about the MFC (Candida albicans [4]; C. albicans) of the same compound?
Answer: 15.6 µg/mL (≈ 37.3 µM)

Question: And the “Fold activity in comparison” value (Fusarium oxysporum [5])?
Answer: 2 fold

Question: And the MFC (Fusarium oxysporum [5])?
Answer: 27.8 µg/mL (≈ 66.4 µM)

Question: What about the MIC (Fusarium oxysporum [5]) of the same compound?
Answer: 15.6 µg/mL (≈ 37.3 µM)

Question: And the zone of inhibition at 500 µg/mL (Salmonella typhi)?
Answer: 23 ± 0.11 mm

Question: What about the zone of inhibition at 500 µg/mL (Staphylococcus aureus [6]) of the same compound?
Answer: 26 ± 0.14 mm

Question: And the zone of inhibition at 500 µg/mL (Candida albicans [7])?
Answer: 24 ± 0.3 mm

Question: What about the zone of inhibition at 500 µg/mL (Fusarium oxysporum [8]) of the same compound?
Answer: 20 ± 0.82 mm

Question: What about the “Mean Diameter of Inhibition Zone against MDRB” value [9] of the same compound?
Answer: 26 ± 0.15 mm

Question: And the IC50 (B. subtilis DNA Gyrase)?
Answer: 15.3 ± 0.5 µM

Question: And the “Mean Diameter of Inhibition Zone against MDRB” value [10]?
Answer: 27 ± 0.54 mm

Question: What about the MBC (Staphylococcus aureus [11]) of the same compound?
Answer: 5.57 µg/mL (≈ 13.3 µM)

Question: What about the MIC (Staphylococcus aureus [11]) of the same compound?
Answer: 5.57 µg/mL (≈ 13.3 µM)

Question: And the “Fold more than Tetracycline (MIC)” value (Pseudomonas aeruginosa)?
Answer: 11.2 fold

Question: And the MBC (Pseudomonas aeruginosa)?
Answer: 10.6 µg/mL (≈ 25.3 µM)

Question: And the MIC (Pseudomonas aeruginosa)?
Answer: 5.57 µg/mL (≈ 13.3 µM)

Question: What about the IC50 (DHFR E. coli) of the same compound?
Answer: 3.98 ± 0.61 µM

Question: And the “Fold potential relative to Trimethoprim (IC50)” value (DHFR E. coli)?
Answer: 1.3 fold

Question: What about the IC50 (Vero cells (ATCC CCL-81); Chlorocebus sabaeus, Vero) of the same compound?
Answer: > 120 µM

Question: And the IC50 (Vero cells (ATCC CCL-81))?
Answer: 120.5 ± 0.34 µM

Question: What about the “Mean Diameter of Inhibition Zone against MDRB” value (E. coli ATCC BAA-196 [12]) of the same compound?
Answer: 25 ± 0.46 mm
